The test system of one assay is Bcl-xL. To be noted: vs Bak peptide; no reference in the sentence, preceding paragraph cites ref [53]; cited from earlier work.
Assay [1] addresses T1, γHV68 v-Bcl-2 (wild-type) (Murid herpesvirus 4, UniProt P89884).
T1 construct: we expressed amino acids 1–137 of the v-Bcl-2, removing the carboxy-terminal hydrophobic domain; made in house; host or cells: E. coli BL21(DE3)
Kind of assay: NMR titration of BH3 peptides with wild-type γHV68 v-Bcl-2. In kind it is binding, murine γ-herpesvirus 68. Particulars: 303 K; for binding over the concentration range of the titration: pH 7.8, peptide up to 320 μM. As for the experimental part: (§1) Wild-type and SGR/AAA v-Bcl-2 used in NMR studies were expressed in E. coli BL21(DE3) strain grown on M9 media. For wild-type v-Bcl-2, uniformly ^15N-labeled, uniformly ^15N,^13C-labeled, and uniformly ^15N,^13C-labeled, 75% ^2H samples were prepared with media containing either ^15NH4Cl, ^15NH4Cl plus [U-^13C]glucose or ^15NH4Cl, [U-^13C]glucose, and 75% ^2H2O, respectively. For SGR/AAA v-Bcl-2, a ^15N-labeled sample was prepared with media containing ^15NH4Cl as the sole nitrogen source. Soluble protein was purified by Ni^2+-affinity chromatography. NMR samples contained 0.5–1.0 mM protein in either 90% H2O with 10% ^2H2O or 100% ^2H2O, 20 mM ^2H-TRIS (pH 7.8), and 5 mM ^2H-dithiothreitol.
(§2) All NMR experiments were acquired at 303 K on a Bruker DRX500, DRX600 or DRX800 NMR spectrometer. […] Side-chain ^1H and ^13C NMR signals were assigned from HCCH-TOCSY experiments. Stereospecific assignments of valine and leucine methyl groups were obtained from an analysis of the ^13C-^13C coupling patterns observed for biosynthetically directed, fractionally ^13C-labeled γHV68 v-Bcl-2 [87]. NOE distance restraints were obtained from three-dimensional ^15N- and ^13C-edited NOESY spectra acquired with a mixing time of 80 ms. Slowly exchanging amide protons were identified in an ^15N-HSQC spectrum recorded immediately after exchanging the protein into a buffer prepared with ^2H2O.
(§3) Binding of the Bak 16-mer ([…]), the Bax 16-mer ([…]), the Bad 25-mer ([…]), and a D83A mutant Bak 16-mer ([…]) to wild-type v-Bcl-2, and binding of the Bax 16-mer to SGR/AAA v-Bcl-2 was assessed by NMR titration. Each peptide was titrated from a concentrated stock solution into a sample of ^13C-labeled protein, and binding was monitored from changes in a ^13C methyl-HSQC spectrum. For wild-type v-Bcl-2, ^13C-HSQC spectra were recorded on a uniformly ^13C,^15N-labeled protein sample (120 μM) in the presence of increasing amounts of peptide (40, 80, 160, 240, and 320 μM). For SGR/AAA v-Bcl-2, ^15N-HSQC spectra were recorded on a sample of uniformly ^15N-labeled protein in the presence of increasing amounts of peptide.

The next assay relates to Mcl-1. To be noted: ref [70],[71]; cited from earlier work. The source says: (§4) In this property, the γHV68 and KSHV v-Bcl-2 proteins resemble cellular Mcl-1, which also fails to bind Bad BH3 peptide and is important for development of B cells, one of the cell types in which γHV68 establishes latency. One possible explanation for the lack of binding to the Bad BH3 peptide is that v-Bcl-2 binding to Bad is detrimental to the virus. Bad was recently found to be essential for assembly of a holoenzyme tha ...

Another assay deals with KSHV v-Bcl-2. Particulars: ref [9]; cited from earlier work.
Description: as §4, with “Each of these proteins interacts with BH3 peptides from Bak and Bax, but the viral proteins differ from the host proteins in their inability to bind the Bad BH3 peptide. […] In” for “In”

Assay [2] concerns the target T2, γHV68 v-Bcl-2 (wild-type) (Murid herpesvirus 4, UniProt P89884).
T2 construct: we expressed amino acids 1–137 of the v-Bcl-2, removing the carboxy-terminal hydrophobic domain; made in house; host or cells: E. coli BL21(DE3)
T2 sequence (P89884 whole entry, looked up): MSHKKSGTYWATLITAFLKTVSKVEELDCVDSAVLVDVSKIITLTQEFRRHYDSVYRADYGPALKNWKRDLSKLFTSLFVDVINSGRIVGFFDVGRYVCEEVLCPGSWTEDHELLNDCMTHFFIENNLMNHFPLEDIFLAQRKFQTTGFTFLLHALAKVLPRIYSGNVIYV
Description: NMR titration of BH3 peptides with wild-type γHV68 v-Bcl-2. Particulars: changes in 13C methyl-HSQC spectrum, 120 μM 13C,15N-labeled protein, peptide 40, 80, 160, 240, and 320 μM, 20 mM 2H-TRIS pH 7.8, 5 mM 2H-dithiothreitol, 303 K. The format is binding, murine γ-herpesvirus 68. As for the experimental part: as §1, §2, §3

Another assay concerns the target Bcl-2 and Bcl-xL. To be noted: Bad BH3 peptide; ref [9]; read-out: affinity; cited from earlier work.

Ends that are not written are not given here.

Turning to “GQVGRQLAIIGADINR [D83A mutant Bak peptide]”, the “fold reduction of affinity for Bcl-xL by D83A mutation” value in the assay on Bcl-xL was “more than 120 fold”. Further, in assay [1], the “binding over the concentration range of the titration” value is recorded as “no binding”. Also, the Kd in assay [1] (changes in 13C methyl-HSQC spectrum, 120 μM 13C,15N-labeled protein, peptide 40, 80, 160, 240, and 320 μM, 20 mM 2H-TRIS pH 7.8, 5 mM 2H-dithiothreitol) was greater than 300 µM.
Turning to “NLWAAQRYGRELRRMSDEFVSFKK [Bad BH3 peptide, Bad 25-mer ([…]), BH3 peptide from proapoptotic Bad]”, the “binding of Bad BH3 peptide to Mcl-1” value in the assay with Mcl-1 is on record as “fails to bind”. Further, the “binding to KSHV v-Bcl-2” value with KSHV v-Bcl-2 is recorded as “much lower affinity than is observed for Bcl-2 or Bcl-xL”. Besides, in assay [1], the “binding over the concentration range of the titration” value was “bound weakly”. Further, the Kd in assay [2] was greater than 300 µM; on Bcl-2 and Bcl-xL, 0.0006 to 0.015 µM.
Consider KKLSECLKRIGDELDS [Bax peptide], for which the “binding to KSHV v-Bcl-2” value in the assay on KSHV v-Bcl-2 is “interacts”. The “exchange with γHV68 v-Bcl-2 on the NMR timescale” value in assay [1] (pH 7.8) is given as “slow exchange”.
